Assay results as given in PubChem BioAssay AID274 (DTP/NCI, 2004).
Where “and” joins values, the source holds several entries; their conditions need not be identical. Identical values can stand only once. Inconclusive results and toxic doses are left out. How the source made its calls: active means survival T/C of 150% or more; inactive means T/C below 125% in these data.

Test system: BDF1 mice, Lewis lung carcinoma iv, survival T/C
Test: NCI In Vivo Anticancer Drug Screen. Data for tumor model Lewis Lung Carcinoma (intravenous) in B6D2F1 (BDF1) mice
Conditions: endpoint: median survival time, higher = longer survival
Method: The antitumor activity of compounds was measured in mice bearing transplantable tumors. Survival or tumor size were measured and the results are expressed as the measurement made in the treated group (T) divided by the measurement made in the vehicle treated control group (C). The tumor model used in this assay is Lewis Lung Carcinoma (intravenous) in B6D2F1 (BDF1) mice

[1] = dose: 10.0 mg/kg/injection, schedule: Q01DX009 (ip), vehicle: saline with Tween-80
[2] = dose: 20.0 mg/kg/injection, schedule: Q01DX009 (ip), vehicle: saline with Tween-80
[3] = dose: 25.0 mg/kg/injection, schedule: Q01DX009 (ip), vehicle: saline with Tween-80
[4] = dose: 50.0 mg/kg/injection, schedule: Q01DX009 (ip), vehicle: saline with Tween-80
[5] = dose: 100.0 mg/kg/injection, schedule: Q01DX009 (ip), vehicle: saline with Tween-80
[6] = dose: 200.0 mg/kg/injection, schedule: Q01DX009 (ip), vehicle: saline with Tween-80
[7] = dose: 50.0 mg/kg/injection, schedule: Q01DX009 (ip), vehicle: Klucel (hydroxypropylcellulose) (HPC)
[8] = dose: 100.0 mg/kg/injection, schedule: Q01DX009 (ip), vehicle: Klucel (hydroxypropylcellulose) (HPC)
[9] = dose: 0.6 mg/kg/injection, schedule: Q04DX003 (ip), vehicle: saline
[10] = dose: 12.5 mg/kg/injection, schedule: Q01DX009 (ip), vehicle: saline with Tween-80
[11] = dose: 1.56 mg/kg/injection, schedule: Q01DX009 (ip), vehicle: saline with Tween-80

Measured: T/C

CC[C@@]1(O)C[C@H](OC2CC(N(C)C)C(OC3CC(O)C(OC4CCC(=O)C(C)O4)C(C)O3)C(C)O2)c2c(cc3c(c2O)C(=O)c2c(O)ccc(O)c2C3=O)[C@H]1C(=O)OC (some centres not stated)
inactive: dose: 0.12 mg/kg/injection, schedule: Q01DX009 (ip), vehicle: water 103 % of control | dose: 0.25 mg/kg/injection, schedule: Q01DX009 (ip), vehicle: water 103 % of control and 107 % of control | dose: 0.5 mg/kg/injection, schedule: Q01DX009 (ip), vehicle: water 96 % of control and 101 % of control | dose: 0.88 mg/kg/injection, schedule: Q01DX009 (ip), vehicle: water 117 % of control | dose: 1.0 mg/kg/injection, schedule: Q01DX009 (ip), vehicle: water 103 % of control | dose: 1.7 mg/kg/injection, schedule: Q04DX003 (ip), vehicle: water 94 % of control | dose: 1.92 mg/kg/injection, schedule: Q04DX003 (ip), vehicle: water 110 % of control | dose: 2.9 mg/kg/injection, schedule: Q04DX003 (ip), vehicle: water 100 % of control and 117 % of control | dose: 3.9 mg/kg/injection, schedule: Q04DX003 (ip), vehicle: water 118 % of control | dose: 4.8 mg/kg/injection, schedule: Q01DX001 (ip), vehicle: water 109 % of control | dose: 4.8 mg/kg/injection, schedule: Q04DX003 (ip), vehicle: water 109 % of control and 122 % of control | dose: 6.86 mg/kg/injection, schedule: Q01DX001 (ip), vehicle: water 123 % of control | dose: 8.0 mg/kg/injection, schedule: Q04DX003 (ip), vehicle: water 104 % of control | dose: 13.3 mg/kg/injection, schedule: Q04DX003 (ip), vehicle: water 86 % of control

COc1ccc(-c2c(C)c(C(=O)O)nc(-c3ccc4c(O)c(OC)c5c(c4n3)=NC(C)(C)N=5)c2N)c(O)c1OC
inactive: [1] 113 % of control | [2] 103 % of control | dose: 40.0 mg/kg/injection, schedule: Q01DX009 (ip), vehicle: saline with Tween-80 98 % of control

CC(=O)N(C)O
inactive: [3] 102 % of control | [4] 90 % of control | [5] 98 % of control | [6] 95 % of control

O=C1CC2(C(=O)N1CN1CCOCC1)c1ccccc1-c1ccccc12
inactive: [7] 94 % of control | [8] 98 % of control | dose: 200.0 mg/kg/injection, schedule: Q01DX009 (ip), vehicle: Klucel (hydroxypropylcellulose) (HPC) 101 % of control | dose: 400.0 mg/kg/injection, schedule: Q01DX009 (ip), vehicle: Klucel (hydroxypropylcellulose) (HPC) 112 % of control

C=C1C(=O)OC2C3OC(C)(CCC(O)C3COC(C)=O)CC(OC(=O)/C(=C/C)COC(C)=O)C12 (configuration not stated)
inactive: dose: 0.75 mg/kg/injection, schedule: Q01DX009 (ip), vehicle: suspension in saline 112 % of control | dose: 1.5 mg/kg/injection, schedule: Q01DX009 (ip), vehicle: suspension in saline 103 % of control | dose: 3.0 mg/kg/injection, schedule: Q01DX009 (ip), vehicle: suspension in saline 89 % of control

NC1(C(=O)O)CCCc2ccc(N(CCCl)CCCl)cc21 (configuration not stated)
inactive: dose: 2.5 mg/kg/injection, schedule: Q01DX009 (ip), vehicle: saline 99 % of control | dose: 5.0 mg/kg/injection, schedule: Q01DX009 (ip), vehicle: saline 98 % of control | [1] 118 % of control | dose: 10.0 mg/kg/injection, schedule: Q01DX009 (ip), vehicle: saline 109 % of control | [2] 108 % of control

CC[C@]1(O)C[C@H]2CN(CCc3c([nH]c4ccccc34)[C@@](C(=O)OC)(c3cc4c(cc3OC)N(C=O)[C@H]3[C@@](O)(C(=O)OC)[C@H](OC(C)=O)[C@]5(CC)C=CCN6CC[C@]43[C@@H]65)C2)C1
inactive: dose: 0.36 mg/kg/injection, schedule: Q04DX003 (ip), vehicle: saline 98 % of control | [9] 105 % of control | dose: 1.0 mg/kg/injection, schedule: Q04DX003 (ip), vehicle: saline 120 % of control | dose: 130.0 micrograms/kg/injection, schedule: Q01DX009 (ip), vehicle: saline 106 % of control | dose: 216.0 micrograms/kg/injection, schedule: Q01DX009 (ip), vehicle: saline 111 % of control

O=c1c(O)c(-c2cc(O)c(O)c(O)c2)oc2cc(O)cc(O)c12
inactive: dose: 6.25 mg/kg/injection, schedule: Q01DX009 (ip), vehicle: other 88 % of control | dose: 12.5 mg/kg/injection, schedule: Q01DX009 (ip), vehicle: other 94 % of control | dose: 25.0 mg/kg/injection, schedule: Q01DX009 (ip), vehicle: other 93 % of control | dose: 50.0 mg/kg/injection, schedule: Q01DX009 (ip), vehicle: other 93 % of control | dose: 100.0 mg/kg/injection, schedule: Q01DX009 (ip), vehicle: other 115 % of control | dose: 200.0 mg/kg/injection, schedule: Q01DX009 (ip), vehicle: other 97 % of control

CC1=CC(=NN=c2cc(C)n([O-])c(C)c2)C=C(C)[N+]1=O
inactive: [10] 102 % of control | [3] 100 % of control | [4] 104 % of control | [5] 105 % of control | [6] 86 % of control

O=C(Nc1ccc(Cl)c(Cl)c1)Nc1c(Oc2ccc(Cl)c(Cl)c2)ccc(Cl)c1S(=O)(=O)O
inactive: dose: 3.12 mg/kg/injection, schedule: Q01DX009 (ip), vehicle: Klucel (hydroxypropylcellulose) (HPC) 113 % of control | dose: 6.25 mg/kg/injection, schedule: Q01DX009 (ip), vehicle: Klucel (hydroxypropylcellulose) (HPC) 104 % of control | dose: 25.0 mg/kg/injection, schedule: Q01DX009 (ip), vehicle: Klucel (hydroxypropylcellulose) (HPC) 109 % of control | [7] 105 % of control | [8] 100 % of control

OCC1(CO)COC2(CCCCC2)N1
inactive: dose: 12.5 mg/kg/injection, schedule: Q01DX009 (ip), vehicle: saline 102 % of control | dose: 25.0 mg/kg/injection, schedule: Q01DX009 (ip), vehicle: saline 100 % of control | dose: 50.0 mg/kg/injection, schedule: Q01DX009 (ip), vehicle: saline 102 % of control | dose: 100.0 mg/kg/injection, schedule: Q01DX009 (ip), vehicle: saline 100 % of control | dose: 200.0 mg/kg/injection, schedule: Q01DX009 (ip), vehicle: saline 101 % of control | dose: 400.0 mg/kg/injection, schedule: Q01DX009 (ip), vehicle: saline 103 % of control

CSc1ccc2c(c1)C(N1CCN(C)CC1)Cc1ccccc1S2 (configuration not stated)
inactive: [11] 102 % of control

c1ccc2c(c1)nnn1c3cnccc3nc21
inactive: [11] 103 % of control | dose: 3.12 mg/kg/injection, schedule: Q01DX009 (ip), vehicle: saline with Tween-80 90 % of control | dose: 6.25 mg/kg/injection, schedule: Q01DX009 (ip), vehicle: saline with Tween-80 103 % of control | [10] 109 % of control

Cc1ccc(Cl)c2ccccc12
inactive: [4] 98 % of control | [5] 98 % of control | [6] 107 % of control

Cc1ccc(N=NN(C)C)cc1
inactive: [3] 100 % of control | [4] 105 % of control | [5] 105 % of control

CC[C@]1(O)C[C@H]2CN(CCc3c([nH]c4ccccc34)[C@@](C(=O)OC)(c3cc4c(cc3OC)N(C)[C@H]3[C@@](O)(C(=O)OC)[C@H](OC(C)=O)[C@]5(CC)C=CCN6CC[C@]43[C@@H]65)C2)C1
inactive: [9] 106 % of control | dose: 125.0 micrograms/kg/injection, schedule: Q04DX003 (ip), vehicle: saline 93 % of control (2×) and 102 % of control | dose: 250.0 micrograms/kg/injection, schedule: Q04DX003 (ip), vehicle: saline 92 % of control (2×) and 95 % of control | dose: 360.0 micrograms/kg/injection, schedule: Q01DX009 (ip), vehicle: saline 111 % of control | dose: 500.0 micrograms/kg/injection, schedule: Q04DX003 (ip), vehicle: saline 92 % of control (2×) and 95 % of control | dose: 600.0 micrograms/kg/injection, schedule: Q01DX009 (ip), vehicle: saline 92 % of control

O=C1N=C(Oc2ccccc2)SC1=O
inactive: [10] 100 % of control and 109 % of control | [3] 97 % of control | [4] 94 % of control and 102 % of control | [5] 100 % of control

C[C@H](CCC(=O)O)[C@H]1CC[C@H]2[C@@H]3[C@H](O)C[C@@H]4C[C@H](O)CC[C@]4(C)[C@H]3C[C@H](O)[C@]12C (tested in a mixture with another compound)
inactive: [4] 109 % of control | [5] 108 % of control | [6] 121 % of control

COC1NC(=O)NC(=O)C1=[N+]=[N-] (configuration not stated)
inactive: dose: 2.0 mg/kg/injection, schedule: Q01DX009 (ip), vehicle: water 96 % of control | dose: 4.0 mg/kg/injection, schedule: Q01DX009 (ip), vehicle: water 98 % of control | dose: 8.0 mg/kg/injection, schedule: Q01DX009 (ip), vehicle: water 100 % of control
